Measured values published in patent US20080125445A1, “5,6-Dialkyl-7-Amino-Azolopyrimidines, Method For Their Production, Their Use For Controlling Pathogenic Fungi and Agents Containing Said Compounds” (BASF Aktiengesellschaft, priority 2005, published 2008).

Tested on: Plasmopara viticola
Test: Activity against Peronospora of grapevines caused by Plasmopara viticola (comparative test, protective spray)
Type: in vivo
Details: leaves of potted grapevines sprayed to runoff, inoculated next day; infection on undersides of leaves determined visually; untreated 100%; active compound concentration not given
Description: The active compounds were prepared as a stock solution comprising 25 mg of active compound which was made up to 10 ml using a mixture of acetone and/or DMSO and the emulsifier Uniperol® EL (wetting agent having emulsifying and dispersing action based on ethoxylated alkylphenols) in a volume ratio of solvent/emulsifier of 99/1. The mixture was then made up to 100 ml with water. This stock solution was diluted with the solvent/emulsifier/water mixture described to the concentration of active compounds stated below. Leaves of potted grapevines were sprayed to runoff point with an aqueous suspension having the concentration of active compound stated below. The next day, the undersides of the leaves were inoculated with an aqueous sporangia suspension of Plasmopara viticola. The grapevines were then initially placed in a water vapor-saturated chamber at 24° C. for 48 hours and then in a greenhouse at temperatures between 20 and 30° C. for 5 days. After this time, the plants were again placed into a moist chamber for 16 hours to accelerate sporangiophore eruption. The extent of the development of the infection on the undersides of the leaves was then determined visually.

Structure (SMILES)	Infection in %
CCCCc1nc2cc(C)nn2c(N)c1CCCC [Compound 17]	25%
CCCCCc1nc2cc(C)nn2c(N)c1CCCCC [Compound I-1, 2-methyl-5,6-dipentylpyrazolo[1,5-a]pyrimidin-7-ylamine]	3%
